Test results from US9181309B1, “Peptide regulation of maize defense responses” (The United States of America, as represented by the …, priority 2011, dated 2015).

Columns and labels:
[1] = tested on: defense metabolites in maize leaves; assay: Accumulation of defense metabolites within treated leaves (internal pools); format: in vivo, Zea mays
Source text: Induced terpene production is vital to anti-herbivore defenses in many plant species (Unsicker et al., Curr Opin Plant Biol. 12:479, 2009; Tholl, Curr Opin Plant Biol. 9:297, 2006; Keeling and Bohlmann, New Phytol 170:657, 2006). […] Expression of genes encoding the relevant biosynthetic enzymes, Anthranilic Acid Methyl Transferase 1 (AAMT1) and Indole-Glycerol Phosphate Lyase (IGL) were induced by both peptide and the insect elicitor ([…]., Plant Physiol 153:1795, 2010; Frey et al., Proc Natl Acad Sci USA. 97:14801, 2000). In addition to proteinaceous defenses, maize benzoxazinoids contribute to direct defenses against both herbivores and pathogens ([…] Agric Food Chem 57:1677, 2009). […] Oikawa et al., Phytochemistry. 56:669, 2001; Huffaker et al., Plant Physiol. 155:1325, 2011). […] It is hypothesized that simultaneous activation of both IGL and BX1 by ZmPep3 results in increased flux through the benzoxazinoid pathway to produce HDMBOA-Glc.

Cotesia marginiventris = assay: Olfactometer assay of parasitoid wasp attraction to pretreated leaves; format: in vivo
Source text: The generalist parasitoid Cotesia marginiventris attacks many Lepidopteran species including S. exigua and is attracted to herbivory-induced maize volatiles (Turlings et al., Science 250:1251, 1990). Precisely which components are attractive has been difficult to determine, and the wasps respond strongly to unidentified minor components when subjected to gas chromatograph-coupled electroantennography (Gouinguene et al., J Chem Ecol. 31:1023, 2005). To determine whether the ZmPep3-induced blend was attractive to naïve C. marginiventris, olfactometer assays were conducted with leaves pretreated with ZmPep3, Gln-18:3 or water for 16 h. To ensure that any preference was due to elicited plant responses and not to an inherent attraction or repellence to any treatment substance, leaves treated at time of assay were used as controls. […] Thus, ZmPep3-regulated responses are sufficient to generate effective indirect defenses against Lepidopteran herbivores.

maize leaf transcripts = assay: Microarray analysis of transcript levels in ZmPep3 vs water-treated leaves; format: in vivo, Zea mays; conditions: leaves treated for 12 h
Source text: The gene transcripts shown in FIG. 4 are a subset of the defense-related genes found to be induced by ZmPEP3 peptide in the excised leaf assays. Including these, a total of twenty genes have been identified as ZmPEP3-responsive. All can be classified as pertaining to four broad categories of defense-related genes; those encoding proteins that are directly antimicrobial, those encoding proteins that synthesize secondary metabolites associated with defense, those encoding proteins that are involved in reactive oxygen species-based signal transduction and detoxification, and those that encode biosynthetic proteins for the two main plant small molecule hormone regulators of defense, ethylene and oxylipins. To obtain a more global perspective of gene expression regulated by ZmPEP3, a microarray experiment was performed to compare expression levels in ZmPEP3 vs. water-treated leaves after […]. […] In FIG. 7, real-time quantification of expression levels of genes associated with direct and indirect herbivore defenses confirms that ZmPEP3 is a strong regulator of both defense responses. […] FIG. 8 lists defense-associated genes discovered to be induced by the ZmPEP3.
A microarray analysis of transcript levels in leaves that were treated for 12 h with either water or ZmPep3 was employed to better characterize the breadth of ZmPep3-regulated responses. […]

[2] = tested on: jasmonic acid and ethylene production in maize leaves; assay: Phytohormone (JA, ET) production in treated leaves; format: in vivo, Zea mays
Source text: A further embodiment is ZmPEP3 regulated production of defense-related metabolites. The elicitor-induced phytohormones JA and ethylene (ET) function as signals integral to initiation of protective responses against pathogens and herbivores (Howe and Jander, Annu Rev Plant Biol. 59:41, 2008).

Question: What does the source list for “ZmPEP3: 23 amino acid maize plant elicitor peptide TRTPPWPPCPPEEGSGGNGGSHN (SEQ ID NO: 3) (Zea mays)”?
Answer: anthranilate and indole in leaves ([1]; following treatment): increased; HDMBOA-Glc accumulation ([1]; in vivo): increased accumulation; anthranilate and indole accumulation, peptide vs Gln-18:3 ([1]; in vivo): significantly greater accumulation; accumulation of terpenes in internal pools, ZmPep3 vs Gln-18:3 ([1]; measured prior to volatile collection): significantly greater accumulation of terpenes; wasps attracted to ZmPep3-pretreated vs water-pretreated leaves (Cotesia marginiventris; 16 h pretreatment): more wasps were attracted; wasp preference for leaves pretreated 16 h vs leaves treated at time of assay (Cotesia marginiventris; naive C. marginiventris): strongly preferred; BX1 and BX2 microarray probe sets (maize leaf transcripts): upregulated; SerPIN probe set in microarray (maize leaf transcripts): most highly upregulated probe set; jasmonic acid accumulation in leaves ([2]; ZmPEP3-treated leaves): found to accumulate; JA and ET increases, ZmPep3 compared to Gln-18:3 ([2]; low equivalent quantities): greater magnitude and longer duration; JA and ET synthesis ([2]; low equivalent quantities of either elicitor): elicitation of JA and ET synthesis
